Reference: patent publication US12325736B2, “Transduced T cells expressing human SSTR2 and application thereof” (Cornell University, priority 2016, dated 2025)
Numbering of substitutions follows the chain as printed. Names and notes keep the numbering of the source.

Key:
[1] = PET/CT DOTATOC uptake by subcutaneous Jurkat T cell xenografts (0-100% SSTR2+); type: in vivo, NSG mice; conditions: NSG (NOD/LtSz Prkdc^scid Il2rg^tm1Wjl/J), mouse, subcutaneous Jurkat tumor xenograft
Description: All animal experiments were performed in strict accordance with the recommendations in the Guide for the Care and Use of Laboratory Animals of the National Institutes of Health. This study's animal protocol was approved by the Institutional Laboratory Animal Use and Care Committee of Weill Cornell Medicine. SSTR2 expressing Jurkats were spiked with increasing numbers of non-transduced Jurkats to derive distinct cultures containing defined percentages of SSTR2 expression ranging from 100-0%. For each subcutaneous xenograft, 5×10^6 total cells were resuspended in 100 μl Matrigel Basement Membrane Matrix (Corning) and injected bilaterally into nonobese diabetic (NOD)/LtSz Prkdc^scid I12rg^tm1Wj1/J (NSG) mice (Jackson Laboratory). Measurements of tumor size were made using an external digital caliper. Tumor volume was calculated by using the modified ellipsoid formula 1/2(Length×Width^2). Length was measured as the longer dimension. Each dimensional measurement was rounded to the nearest 0.5 cm.
(§1) Projection data was acquired in a cone-beam geometry with approximately […] steps at 1 degree angular increments. At least 10 million coincidence events were acquired for PET per study using a 250 to 750 keV energy window and a 6 ns timing window. […] To compute DOTATOC uptake by Jurkat tumors, the ellipsoidal ROIs (Amide) were placed to enclose subcutaneous tumors that closely match overall tumor size and shape. For systemic 8505C tumor models, ellipsoids were drawn separately on the left and right sides of lungs to enclose much of five lobes of mouse lungs. The % ID/cm^3 values, computed relative to the counts in a reference tube, can be approximated to a standard uptake value (SUV^61) by dividing % ID/cm^3 by four, assuming injection efficiency of 100% and 25 g of body weight. Visualization and analyses of PET/CT images were performed using Amide (amide.sourceforge.net).

[2] = PET/CT DOTATOC uptake in lungs, 8505C mouse model and controls; type: in vivo, NSG mice; conditions: NSG
Description: 1×10^6 8505c-FLuc^+GFP^+cells were injected into NSG mice via tail vein. 2-3×10^6 primary human T cells were injected via tail vein 7-15 days after tumor cell injection. Luminescence imaging of tumor xenografts in live mice was performed using a whole body optical imager (In-Vivo Extreme 4MP, Bruker). Mice were first anesthetized with 3% isoflurane at 2 L/min O2 and subsequent to this, maintained at 2% isoflurane at 2 L/min O2. Growth or reduction in tumor burden was estimated by integration of luminescence over the lungs or the entire mouse body. Ex-vivo fluorescence imaging of mouse liver, lungs, spleen and resected tumors were performed using a whole body optical imager (In-Vivo F Pro, Bruker).
as §1

[3] = target: SSTR2 (Homo sapiens, UniProt P30874); assay: Octreotide-induced SSTR2 internalization in SSTR2-transduced Jurkat T cells by flow cytometry; type: cell-based; conditions: 1 μM octreotide, 30 min, 37° C.
SSTR2, sequence (P30874 whole entry): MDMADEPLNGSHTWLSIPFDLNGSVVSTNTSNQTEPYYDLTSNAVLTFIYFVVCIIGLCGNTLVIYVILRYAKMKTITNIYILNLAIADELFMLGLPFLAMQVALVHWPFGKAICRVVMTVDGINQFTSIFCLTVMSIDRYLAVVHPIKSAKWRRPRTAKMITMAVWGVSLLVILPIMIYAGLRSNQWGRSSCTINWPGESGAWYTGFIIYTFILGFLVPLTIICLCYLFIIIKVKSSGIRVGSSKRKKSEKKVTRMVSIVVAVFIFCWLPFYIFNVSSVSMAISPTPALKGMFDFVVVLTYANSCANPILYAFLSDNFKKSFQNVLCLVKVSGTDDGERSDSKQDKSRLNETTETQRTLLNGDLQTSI
Description: SSTR2-transduced Jurkat T cells were incubated with or without octreotide, 1 μM (Sigma) for 30 min at 37° C. Subsequent internalization of SSTR2 was measured by flow cytometry analysis of SSTR2 expression. […] Values obtained were used for Scatchard analysis to estimate affinity and site density.

[4] = target: ICAM-1 (Homo sapiens, UniProt P05362); assay: SPR measurement of LFA-1 I domain affinity to ICAM-1; type: binding
ICAM-1, sequence (P05362 28-532): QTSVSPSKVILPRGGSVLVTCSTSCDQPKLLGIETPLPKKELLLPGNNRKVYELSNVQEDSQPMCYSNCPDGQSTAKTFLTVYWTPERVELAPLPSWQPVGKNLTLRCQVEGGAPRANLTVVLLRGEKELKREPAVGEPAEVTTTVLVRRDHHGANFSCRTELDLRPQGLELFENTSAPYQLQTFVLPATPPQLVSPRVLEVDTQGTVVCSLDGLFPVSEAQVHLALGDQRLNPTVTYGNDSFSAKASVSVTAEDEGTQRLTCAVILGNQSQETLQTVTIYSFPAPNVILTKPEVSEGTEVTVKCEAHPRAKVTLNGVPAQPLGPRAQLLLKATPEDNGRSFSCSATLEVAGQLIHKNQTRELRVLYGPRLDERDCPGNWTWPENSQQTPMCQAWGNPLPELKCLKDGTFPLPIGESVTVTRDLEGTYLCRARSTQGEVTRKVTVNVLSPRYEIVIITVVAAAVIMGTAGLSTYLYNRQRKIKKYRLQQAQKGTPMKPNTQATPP
Description: Affinity is first measured by surface plasmon resonance (e.g., Biacore) to assess 1.1 binding affinity between I domain and ICAM-1.

## C[C@@H](O)[C@@H]1NC(=O)[C@H](CCCCN)NC(=O)[C@@H](Cc2c[nH]c3ccccc23)NC(=O)[C@H](Cc2ccc(O)cc2)NC(=O)[C@@H](NC(=O)[C@@H](Cc2ccccc2)NC(=O)CN2CCN(CC(=O)O)CCN(CC(=O)O)CCN(CC(=O)O)CC2)CSSC[C@@H](C(=O)N[C@H](CO)[C@@H](C)O)NC1=O [DOTATOC, 1,4,7,10-tetraazacyclododecane-N^I,N^II,N^III,N^IIII-tetraacetic acid (D)-Phe^1-Tyr^3-octreotide]
[1]; Jurkat tumors containing 0% SSTR2+ cells
  tissue uptake per volume: 0.6 to 0.8 %ID/mL
[1]; tumors below 65 mm^3, 0% SSTR2+
  tissue uptake per volume: 0.44 ± 0.2 %ID/mL
[1]; tumors below 65 mm^3, 1% SSTR2+
  tissue uptake per volume: 0.64 ± 0.4 %ID/mL
[1]; tumors below 65 mm^3, 10% SSTR2+
  tissue uptake per volume: 0.83 ± 0.5 %ID/mL
[1]; tumors below 65 mm^3, 100% SSTR2+
  tissue uptake per volume: 3.4 ± 1.7 %ID/mL
[1]; tumors larger than 65 mm^3, 0% SSTR2+
  tissue uptake per volume: 0.8 ± 0.35 %ID/mL
[1]; tumors larger than 65 mm^3, 0.1% SSTR2+
  tissue uptake per volume: 1.1 ± 0.51 %ID/mL
[1]; tumors larger than 65 mm^3, 1% SSTR2+
  tissue uptake per volume: 2 ± 0.77 %ID/mL
[1]; tumors larger than 65 mm^3, 10% SSTR2+
  tissue uptake per volume: 2.8 ± 1.1 %ID/mL
[1]; tumors larger than 65 mm^3, 100% SSTR2+
  tissue uptake per volume: 7.1 ± 2.3 %ID/mL
[2]; lungs, DOTATOC uptake in the lungs, mice treated with RR T cells
  tissue uptake per volume: 1 %ID/mL
[2]; lungs, DOTATOC uptake, mice with no tumors infused with SS T cells
  tissue uptake per volume: 0.7 %ID/mL
[2]; thoracic cavity, non-specific DOTATOC uptake in the thoracic cavity, high tumor burden, 23-27 days post-tumor xenograft, no T cells or SS T cells
  tissue uptake per volume: 1.3 ± 0.5 %ID/mL

## C[C@@H](O)[C@@H]1NC(=O)[C@H](CCCCN)NC(=O)[C@@H](Cc2c[nH]c3ccccc23)NC(=O)[C@H](Cc2ccccc2)NC(=O)[C@@H](NC(=O)[C@H](N)Cc2ccccc2)CSSC[C@@H](C(=O)N[C@H](CO)[C@@H](C)O)NC1=O [octreotide]
[3]
  surface expression of SSTR2 (antibody binding): reduced surface expression of SSTR2

B1: F292G: LFA-1 I domain mutant F292G, G128-G311 of SEQ ID NO: 1 (protein, listed as Homo sapiens)
chain: GNVDLVFLFDGSMSLQPDEFQKILDFMKDVMKKLSNTSYQFAAVQFSTSYKTEFDFSDYVKWKDPDALLKHVKHMLLLTNTFGAINYVATEVFREELGARPDATKVLIIITDGEATDSGNIDAAKDIIRYIIGIGKHFQTKESQETLHKFASKPASEFVKILDTGEKLKDLFTELQKKIYVIEG
[4]; SPR measurements, I domain to ICAM-1
  Kd: 100 nM

B2: F265S/F292G (DM): LFA-1 I domain double mutant F265S/F292G, G128-G311 of SEQ ID NO: 1 (protein, listed as Homo sapiens)
chain: B1 chain with F138S
[4]; vs WT KD=1.5 mM
  affinity higher than the wild-type (WT) I domain: approximately 200,000 fold
